Data: patent EP0717738B1, “SUBSTITUTED OXAZINE AND THIAZINE OXAZOLIDINONE ANTIMICROBIALS” (priority 1993, dated 1995)
≈ marks a conversion by molar mass, not a printed value. Where “and” joins values, the source holds several entries; their conditions need not be identical. Equal values may be shown once. Read-outs that look alike come from different tables or passages of the source.

How the values were obtained:
[1] = system: M. avium LPR; test: In vitro MIC by standard dilution method, M. avium LPR; settings: Mycobacterium avium, read-out: MIC M. avium LPR
Method: (§1) The in vitro activity reported in Table 2 was conducted by standard dilution methods known to those skilled in the art. Briefly, serial two-fold dilutions of antibiotic are prepared in a diluent, and a standard volume of mycobacterial growth medium is added to drug aliquot. The medium is inoculated with a standardized mycobacterial cell suspension, and then incubated under appropriate conditions. Following incubation, the Minimal Inhibitory Concentration (MIC) is determined by visual observation. The MIC is defined as the lowest drug concentration (in µg/ml) required to inhibit mycobacterial growth.

[2] = system: M. avium Lowell Young; test: In vitro MIC by standard dilution method, M. avium Lowell Young; settings: Mycobacterium avium, read-out: MIC M. avium Lowell Young
Method: as §1

[3] = system: S. aureus UC® No. 9213; test: Murine Assay: in vivo antimicrobial activity, survival of infected mice; parameters: species or system Staphylococcus aureus; settings: survival over six days; for ED50: Staphylococcus aureus, oral treatment one hour and five hours after infection, probit analysis
Method: Antimicrobial activity was tested in vivo using the Murine Assay procedure. Groups of female mice (six mice of 18-20 grams each) were injected intraperitoneally with Staphylococcus aureus bacteria which were thawed just prior to use and suspended in brain heart infusion with 4% brewers yeast (Staphylococcus aureus) or brain heart infusion (Streptococcus species). Antibiotic treatment at six dose levels per drug was administered one hour and five hours after infection by either oral intubation or subcutaneous routes. Survival was observed daily for six days. ED50 values based on mortality ratios were calculated using probit analysis. The subject compounds were compared against vancomycin as a control.

[4] = system: M. tuberculosis 91-2225; test: In vitro MIC by standard dilution method, M. tuberculosis; format: cell-based; settings: Mycobacterium tuberculosis, 912225; lowest concentration required to kill the organism or inhibit its growth in vitro; visual observation
[5] = system: M. tuberculosis (Erdman strain); test: In vivo antimycobacterial activity, organ counts in infected CD-1 mice; parameters: species or system Mycobacterium tuberculosis; settings: CD-1 mice infected intravenously with 1 x 10^7 M. tuberculosis
Method: The in vivo data for Table 3 was obtained from CD-1 mice infected intravenously with 1 x 10^7 viable M. tuberculosis (Erdman strain). Twenty-four hours later drug treatment was initiated. All the drugs were given by oral gavage twice daily for four weeks. At the end of therapy, viable cell counts were determined from homogenates of spleens and lungs.

[6] = UC9213, po, 144 h, read-out: ED50 (mg/kg) Example, PO, female mice infected intraperitoneally
[7] = 100 mg/kg by oral gavage twice daily for four weeks
[8] = UC9213, 144 h, female mice infected intraperitoneally, read-out: ED50 (mg/kg) Example, PO
[9] = positive control, 25 mg/kg orally twice daily for four weeks

**Q.** Which results are given for CC[C@H]1OC(=O)[C@H](C)[C@@H](O[C@H]2C[C@@](C)(OC)[C@@H](O)[C@H](C)O2)[C@H](C)[C@@H](O[C@@H]2O[C@H](C)C[C@H](N(C)C)[C@H]2O)[C@](C)(O)C[C@@H](C)CN(C)[C@H](C)[C@@H](O)[C@]1(C)O [AZITHROMYCI N, azithromycin, reference compound]?
**A.** MIC [1]: 8 µg/mL (≈ 10.7 µM); MIC [2]: 4 µg/mL (≈ 5.34 µM)

**Q.** Which results are given for CC(=O)NC[C@H]1CN(c2ccc(N3CCSCC3)c(F)c2)C(=O)O1 [Example 1, (S)-N-[[3-[3-fluoro-4-(4-thiomorpholinyl)phenyl]-2-Oxo-5-oxazolidinyl]methyl]acetamide]?
**A.** ED50 [3, 6]: 1.25 mg/kg; MIC [1]: 4 µg/mL (≈ 11.3 µM); MIC [4]: 0.5 µg/mL (≈ 1.41 µM); MIC [2]: 1 µg/mL (≈ 2.83 µM); Log10 Colony-Forming Units of Mycobacterium tuberculosis Per Organ, Lung [5, 7]: 3.59; Log10 Colony-Forming Units of Mycobacterium tuberculosis Per Organ, Spleen [5, 7]: 4.61

**Q.** Which results are given for CC(=O)NC[C@H]1CN(c2ccc(N3CCS(=O)(=O)CC3)c(F)c2)C(=O)O1 [Example 2, (S)-N-[[3-[3-fluoro-4-(1,1-dioxothiomorpholin-4-yl)phenyl]-2-oxo-5-oxazolidinyl]methyl]acetamide]?
**A.** ED50 [3, 6]: 2 mg/kg; MIC [1]: 4 µg/mL (≈ 10.4 µM); MIC [4]: 0.5 µg/mL (≈ 1.3 µM); MIC [2]: 2 µg/mL (≈ 5.19 µM)

**Q.** For CC(=O)NC[C@H]1CN(c2ccc(N3CC[S+]([O-])CC3)c(F)c2)C(=O)O1 [Example 3, (S)-N-[[3-[3-fluoro-4-(1-oxothiomorpholin-4-yl)phenyl]-2-oxo-5-oxazolidinyl]methyl]acetamide], which ED50 [3, 8] is on record?
**A.** The ED50 was 3.4 mg/kg.

**Q.** Which results are given for CC(=O)NC[C@H]1CN(c2cc(F)c(N3CCOCC3)c(F)c2)C(=O)O1 [Example 4]?
**A.** ED50 [3, 6]: 5.5 mg/kg; Log10 Colony-Forming Units of Mycobacterium tuberculosis Per Organ, Lung [5, 7]: 5.03; Log10 Colony-Forming Units of Mycobacterium tuberculosis Per Organ, Spleen [5, 7]: 5.24

**Q.** Which ED50 [3, 8] does the source give for CC(=O)NC[C@H]1CN(c2ccc(N3CCOCC3)c(F)c2)C(=O)O1 [Example 5] here?
**A.** The ED50 was 5.6 mg/kg.

**Q.** With O=CNC[C@H]1CN(c2ccc(N3CCOCC3)c(F)c2)C(=O)O1 [Example 8] as the molecule, how does the ED50 [3, 8] read?
**A.** The ED50 was 12.4 mg/kg.

**Q.** How did the ED50 [3, 8] turn out when COC(=O)NC[C@H]1CN(c2ccc(N3CCOCC3)c(F)c2)C(=O)O1 [Example 9] was run?
**A.** The ED50 was 4.4 mg/kg.

**Q.** How did the ED50 [3, 8] turn out when O=C(NC[C@H]1CN(c2ccc(N3CCOCC3)c(F)c2)C(=O)O1)C(Cl)Cl [Example 10] was run?
**A.** The ED50 was 6.8 mg/kg.

**Q.** What does the source list for NNC(=O)c1ccncc1 [ISONIAZID, Isoniazid, reference compound]?
**A.** MIC [4]: ≤ 0.015 µg/mL; Log10 Colony-Forming Units of Mycobacterium tuberculosis Per Organ, Lung [5, 9]: 3.81; Log10 Colony-Forming Units of Mycobacterium tuberculosis Per Organ, Spleen [5, 9]: 4.36

**Q.** With CN[C@H](CC(C)C)C(=O)N[C@H]1C(=O)N[C@@H](CC(N)=O)C(=O)N[C@H]2C(=O)N[C@H]3C(=O)N[C@H](C(=O)N[C@H](C(=O)O)c4cc(O)cc(O)c4-c4cc3ccc4O)[C@H](O)c3ccc(c(Cl)c3)Oc3cc2cc(c3O[C@@H]2O[C@H](CO)[C@@H](O)[C@H](O)[C@H]2O[C@H]2C[C@](C)(N)[C@H](O)[C@H](C)O2)Oc2ccc(cc2Cl)[C@H]1O [Vancomycin, vancomycin, reference compound] as the molecule, how does the “ED50 (mg/kg) Vancomycin, SC” value ([3]; vancomycin control run alongside the example of the same row, female mice infected intraperitoneally, subcutaneous treatment one hour and five hours after infection, 8640 min) read?
**A.** Its value is 2.0 mg/kg and 3.9 mg/kg.
